From US11465984B2, “Compound having ERK kinase inhibitory activity and use thereof” (SHANGHAI HAIHE PHARMACEUTICAL CO., LTD., priority 2017, dated 2022)

target: ERK2 kinase (Homo sapiens (Human), UniProt P28482); experiment: In vitro enzyme activity assay, ERK2 kinase (Z'-LYTE); format: biochemical; conditions: class symbols; read-out: ERK2 IC50
Method: Half inhibitory activity of the compounds of the invention against ERK2 kinase (IC50 value) was determined in this Example.
• Enzyme: extracellular signal-regulated kinase ERK2 kinase (PV3595, Invitrogen) • Kit: Z′-LYTE® Protein Kinase Assay Kit-Ser/Thr 3 Peptide (PV3176, Invitrogen) • Kit components: The substrate Z′-LYTE™ Ser/Thr 3 Peptide (PV3200) • The phosphorylation substrate Z′-LYTE™ Ser/Thr 3 Phospho-peptide (PV3215) • 5× kinase buffer: 250 mM HEPES (pH 7.5), 50 mM MgCl2, • 5 mM EGTA, 0.05% BRIJ-35 (PV3189, Invitrogen) • ATP (PV3227, Invitrogen) • Development Reagent A (PV3295, Invitrogen) • Development Buffer (P3127, Invitrogen) • Stop Reagent (P3094, Invitrogen) • Microplate reader: The multil-mode microplate reader PerkinElmer EnVision® • Microplate: black shallow 384-well microplate (6008269, PerkinElmer) (2). Assay Protocol:
The substrate Z′-LYTE™ Ser/Thr 3 Peptide, the phosphorylation substrate Z′-LYTE™ Ser/Thr 3 Phospho-peptide, 1× kinase buffer (5× kinase buffer was diluted with ultra pure water by five times), ATP, Development Reagent A, Development Buffer, Stop Reagent were balanced to room temperature for use. The screening concentrations for detecting the effect of the compounds of the invention on the ERK kinase activity were seven 3-fold serial dilutions starting from 1 μM (from 0.2 μM for the positive drug control) using 4% DMSO as co-solvent. 5 μL enzyme system (50 mM HEPES pH 7.5, 1 mM EGTA, 10 mM MgCl2, 0.01% Brij-35, 4 uM substrate, 0.8 ng/μL enzyme), 2.5 μL Compound, 2.5 μL 400 μM ATP were added into 384 well microplate, followed by incubation at room temperature for 60 min in the dark. After the reaction was completed, 5 μl the developing agent (Development Reagent A) diluted with the developing buffer (Development Buffer) was added to all reaction wells, followed by incubation at the room temperature for 60 min in the dark. 5 μL the terminating agent was added to each well to terminate the reaction. The fluorescence was determined using the multil-mode microplate reader PerkinElmer EnVision® (excitation wavelength 400 nm, emission wavelength 460 nm and 528 nm).
The inhibition rate of each well was calculated from 100% phosphorylation substrate well and 0% phosphorylation substrate well using the data analysis method below: phosphorylation %=1−{(emission rate×F100%−C100%)/[C0%−C100%+emission rate×(F100%−F0%)]}×100 inhibition %=100×(1−phosphorylation % of the test compound well/phosphorylation % of the 0% inhibition control) • wherein: • emission rate=fluorescence emission of the sample at 445 nm/fluorescence emission of the sample at 520 nm • F100%=the average fluorescence emission of the control well of 100% phosphorylation substrate at 520 nm • F0%=the average fluorescence emission of the control well of 0% phosphorylation substrate at 520 nm • C100%=the average fluorescence emission of the control well of 100% phosphorylation substrate at 445 nm • C0%=the average fluorescence emission of the control well of 0% phosphorylation substrate at 445 nm
Tests were carried out in duplicate. IC50 values were calculated from the inhibition of the kinase by the test compounds at a range of different concentrations.

Chain of ERK2 kinase (P28482 whole entry): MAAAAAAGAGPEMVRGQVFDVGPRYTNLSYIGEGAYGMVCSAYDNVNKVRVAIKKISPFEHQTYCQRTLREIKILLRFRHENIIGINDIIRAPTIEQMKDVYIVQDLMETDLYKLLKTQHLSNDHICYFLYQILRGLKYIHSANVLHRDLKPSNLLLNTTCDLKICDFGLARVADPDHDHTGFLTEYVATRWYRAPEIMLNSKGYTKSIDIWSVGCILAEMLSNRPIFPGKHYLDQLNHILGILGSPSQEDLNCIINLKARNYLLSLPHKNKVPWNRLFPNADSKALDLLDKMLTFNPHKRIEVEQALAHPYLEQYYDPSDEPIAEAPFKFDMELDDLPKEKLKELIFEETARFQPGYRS

| SMILES | IC50 |
| --- | --- |
| Cc1cc(-c2ccnc(Nc3ccnn3C)n2)cc2c1N(C(=O)Cc1cccnc1Cl)CC2 [Example P13, 2-(2-chloropyridin-3-yl)-1-(7-methyl-5-(2-((1-methyl-1H-pyrazol-5-yl)amino)pyrimidin-4-yl)indolin-1-yl)ethan-1-one] | 0.1 to 1 µM |
| Cn1nccc1Nc1nccc(-c2cc(Cl)c3c(c2)CCN3C(=O)Cc2cccnc2Cl)n1 [Example P11, 1-(7-chloro-5-(2-((1-methyl-1H-pyrazol-5-yl)amino)pyrimidin-4-yl)indolin-1-yl)-2-(2-chloropyridin-3-yl)ethan-1-one] | 0.01 to 0.1 µM |
| O=C(Cc1cccnc1Cl)N1CCc2cc(-c3ccnc(NC4CCOCC4)n3)cc(F)c21 [Example P5, 2-(2-chloropyridin-3-yl)-1-(7-fluoro-5-(2-((tetrahydro-2H-pyran-4-yl)amino)pyrimidin-4-yl)indolin-1-yl)ethan-1-one] | ≤ 0.01 µM |
| CC(CO)Nc1nccc(-c2cc(F)c3c(c2)CCN3C(=O)Cc2cccnc2Cl)n1 (stereo not drawn) [Example P1, 2-(2-chloropyridin-3-yl)-1-(7-fluoro-5-(2-((1-hydroxylprop-2-yl)amino)pyrimidin-4-yl)indolin-1-yl)ethan-1-one] | 0.1 to 1 µM |
| Cn1nccc1Nc1nccc(-c2cc(F)c3c(c2)CCN3C(=O)Cc2ccccc2F)n1 [Example P17, 1-(7-fluoro-5-(2-((1-methyl-1H-pyrazol-5-yl)amino)pyrimidin-4-yl)indolin-1-yl)-2-(2-fluorophenyl)ethan-1-one] | 0.01 to 0.1 µM |
| O=C(Cc1cccnc1Cl)N1CCc2cc(-c3ccnc(NCCO)n3)cc(F)c21 [Example P2, 2-(2-chloropyridin-3-yl)-1-(7-fluoro-5-(2-((2-hydroxylethyl)amino)pyrimidin-4-yl)indolin-1-yl)ethan-1-one] | 0.01 to 0.1 µM |
| Cn1nccc1Nc1nccc(-c2cc(F)c3c(c2)CCN3C(=O)Cc2cccnc2Cl)n1 [Example P10, 2-(2-chloropyridin-3-yl)-1-(7-fluoro-5-(2-((1-methyl-1H-pyrazol-5-yl)amino)pyrimidin-4-yl)indolin-1-yl)ethan-1-one] | ≤ 0.01 µM |
| Cn1nccc1Nc1nccc(-c2cc(F)c3c(c2)CCN3C(=O)Cc2ccccc2Cl)n1 [Example P18, 2-(2-chlorophenyl)-1-(7-fluoro-5-(2-((1-methyl-1H-pyrazol-5-yl)amino)pyrimidin-4-yl)indolin-1-yl)ethan-1-one] | ≤ 0.01 µM |
| CC(CCO)Nc1nccc(-c2cc(F)c3c(c2)CCN3C(=O)Cc2cccnc2Cl)n1 (stereo not drawn) [Example P7, 2-(2-chloropyridin-3-yl)-1-(7-fluoro-5-(2-((4-hydroxylbutan-2-yl)amino)pyrimidin-4-yl)indolin-1-yl)ethan-1-one] | 0.01 to 0.1 µM |

Now from value to compound:

| IC50 | SMILES |
| --- | --- |
| ≤ 0.01 µM | Cc1ncccc1CC(=O)N1CCc2cc(-c3ccnc(Nc4ccnn4C)c3)cc(F)c21 [Example P45, 1-(7-fluoro-5-(2-((1-methyl-1H-pyrazol-5-yl)amino)pyridin-4-yl)indolin-1-yl)-2-(2-methylpyridin-3-yl)ethan-1-one] |
| ≤ 0.01 µM | Cn1nccc1Nc1cc(-c2cc(F)c3c(c2)CCN3C(=O)Cc2ccccc2Cl)ccn1 [Example P31, 2-(2-chlorophenyl)-1-(7-fluoro-5-(2-((1-methyl-1H-pyrazol-5-yl)amino)pyridin-4-yl)indolin-1-yl)ethan-1-one] |
| 0.01 to 0.1 µM | Cn1nccc1Nc1cc(-c2cc(F)c3c(c2)CCN3C(=O)Cc2ncccc2Cl)ccn1 [Example P28, 2-(3-chloropyridin-2-yl)-1-(7-fluoro-5-(2-((1-methyl-1H-pyrazol-5-yl)amino)pyridin-4-yl)indolin-1-yl)ethan-1-one] |
| 0.01 to 0.1 µM | Cn1nccc1Nc1nccc(-c2cc(F)c3c(c2)CCN3C(=O)Cc2cnccc2Cl)n1 [Example P56, 2-(4-chloropyridin-3-yl)-1-(7-fluoro-5-(2-((1-methyl-1H-pyrazol-5-yl)amino)pyrimidin-4-yl)indolin-1-yl)ethan-1-one] |
| 0.1 to 1 µM | Cn1nccc1Nc1nccc(-c2cc(F)c3c(c2F)CCN3C(=O)Cc2cccnc2Cl)n1 [Example P50, 2-(2-chloropyridin-3-yl)-1-(4,7-difluoro-5-(2-((1-methyl-1H-pyrazol-5-yl)amino)pyrimidin-4-yl)indolin-1-yl)ethan-1-one] |
| ≤ 0.01 µM | Cc1cnc(Nc2ccnn2C)nc1-c1cc(F)c2c(c1)CC(C)N2C(=O)Cc1cccnc1Cl (stereo not drawn) [Example P48, 2-(2-chloropyridin-3-yl)-1-(7-fluoro-2-methyl-5-(5-methyl-2-((1-methyl-1H-pyrazol-5-yl)amino)pyrimidin-4-yl)indolin-1-yl)ethan-1-one] |
| 0.01 to 0.1 µM | Cn1nccc1Nc1nccc(-c2cc(F)c3c(c2)CCN3C(=O)Cc2cc(Cl)ccc2F)n1 [Example P34, 2-(5-chloro-2-fluorophenyl)-1-(7-fluoro-5-(2-((1-methyl-1H-pyrazol-5-yl)amino)pyrimidin-4-yl)indolin-1-yl)ethan-1-one] |
| 0.01 to 0.1 µM | Cn1nccc1Nc1nccc(-c2cc(F)c3c(c2)CCN3C(=O)Cc2ccncc2Cl)n1 [Example P37, 2-(3-chloropyridin-4-yl)-1-(7-fluoro-5-(2-((1-methyl-1H-pyrazol-5-yl)amino)pyrimidin-4-yl)indolin-1-yl)ethan-1-one] |
| 0.01 to 0.1 µM | O=C(Cc1cccnc1Cl)N1CCc2cc(-c3ccnc(NC4CC4)c3)cc(F)c21 [Example P61, 2-(2-chloropyridin-3-yl)-1-(5-(2-(cyclopropylamino)pyridin-4-yl)-7-fluoroindolin-1-yl)ethan-1-one] |
| 0.01 to 0.1 µM | Cn1nccc1Nc1nccc(-c2cc(F)c3c(c2)CCN3C(=O)Cc2ccc(F)cc2Cl)n1 [Example P36, 2-(2-chloro-4-fluorophenyl)-1-(7-fluoro-5-(2-((1-methyl-1H-pyrazol-5-yl)amino)pyrimidin-4-yl)indolin-1-yl)ethan-1-one] |
| 0.01 to 0.1 µM | Cn1nccc1Nc1nccc(-c2cc(F)c3c(c2)CCN3C(=O)Cc2cccc(F)c2Cl)n1 [Example P54, 2-(2-chloro-3-fluorophenyl)-1-(7-fluoro-5-(2-((1-methyl-1H-pyrazol-5-yl)amino)pyrimidin-4-yl)indolin-1-yl)ethan-1-one] |

same assay, conditions: read-out: IC50 against ERK2 kinase

| IC50 | SMILES |
| --- | --- |
| 0.0061 µM | Cn1nccc1Nc1nccc(-c2cc(F)c3c(c2)CCN3C(=O)Cc2cccnc2Cl)n1 [Example P10, 2-(2-chloropyridin-3-yl)-1-(7-fluoro-5-(2-((1-methyl-1H-pyrazol-5-yl)amino)pyrimidin-4-yl)indolin-1-yl)ethan-1-one] |
| 0.003 µM | Cn1nccc1Nc1nccc(-c2cc(F)c3c(c2)CCN3C(=O)Cc2ccccc2Cl)n1 [Example P18, 2-(2-chlorophenyl)-1-(7-fluoro-5-(2-((1-methyl-1H-pyrazol-5-yl)amino)pyrimidin-4-yl)indolin-1-yl)ethan-1-one] |

tested on: patients having melanoma with NRAS mutation and solid tumors with BRAF V600 and non-V600 mutants; experiment: not given; conditions: 600 mg twice a day; cited from earlier work

| SMILES | efficacy in patients | safety in patients |
| --- | --- | --- |
| CC(C)Nc1cc(-c2c[nH]c(C(=O)N[C@H](CO)c3cccc(Cl)c3)c2)c(Cl)cn1 [BVD-523, Ulixertinib] | lasting efficacy | acceptable safety |
